We go through 49 compounds from ChEMBL document CHEMBL3879905, “Methods of using macrocyclic modulators of the ghrelin receptor” (2013).

Each structure is given as a SMILES string. The source made the active and inactive calls. The calls are words filed in the database; no cut-off is given here. Bounds are passed on as bounds.

The species entered for one assay is Homo sapiens. The assay can be described thus: Selectivity for human GSHR1a over human motilin receptor.
Assay [1] addresses Growth hormone secretagogue receptor type 1 (Homo sapiens, UniProt Q92847). The assay can be described thus: Displacement of [125I]-Ghrelin from human GSHR1a transfected in HEK293 cell membranes after 30 mins by microplate scintillation and luminescence counting method. A general note: In a radioligand displacement assay an active substance lowers the binding of a labelled ligand.

In assay [2] the test system is Rattus norvegicus. Briefly: Gastrokinetic activity in Wistar rat gastroparesis model at 100 ug/kg, iv administered immediately post phenol red containing methylcellulose meal intake measured after 15 mins by colorimetric method relative to vehicle-treated control. The assay is classed as functional, organism-based.
For assay [3], the system named is Rattus norvegicus. The assay can be described thus: Induction of gastric emptying of solid meal in Sprague-Dawley rat postoperative ileus model at 100 to 300 ug/kg, iv administered prior to 99mTC labeled methylcellulose meal intake measured after 15 mins by gamma counting method relative to vehicle-treated control. Type of assay: functional, organism-based. As to conditions: Stomach.

Assay [4] concerns Rattus norvegicus. Briefly: Induction of gastric emptying of solid meal in iv dosed Wistar rat gastroparesis model administered immediately post methylcellulose meal containing phenol red intake measured after 15 mins by colorimetric method. The assay is classed as functional, organism-based. Particulars: Stomach.
Assay [5] concerns Rattus norvegicus. Briefly: Reversal of morphine-induced intestinal transit delaying in iv dosed Sprague-Dawley rat postoperative ileus model at 100 ug/kg, iv administered prior to 99mTC labeled methylcellulose meal intake measured after 15 mins by gamma counting method. The assay is classed as functional, organism-based.
For assay [6], the system named is Rattus norvegicus. Briefly: Induction of gastric emptying of high caloric meal in Wistar rat gastroparesis model at 0.08 to […] mg/kg, iv after 60 mins. As to conditions: Stomach. The assay is classed as functional, organism-based.
The subject of assay [7] is Rattus norvegicus. The assay can be described thus: Induction of gastric emptying of solid meal in Wistar rat gastroparesis model at 100 ug/kg, iv administered immediately post phenol red containing methylcellulose meal intake measured after 15 mins by colorimetric method relative to vehicle-treated control. The assay is classed as functional, Stomach.
In assay [8] the test system is Rattus norvegicus. Briefly: Induction of gastric emptying of solid meal in Wistar rat gastroparesis model at 30 ug/kg, iv administered immediately post methylcellulose meal containing phenol red intake measured after 15 mins by colorimetric method relative to vehicle-treated control. Type of assay: functional, organism-based. Particulars: Stomach.

Sequence of Growth hormone secretagogue receptor type 1 (Q92847 whole entry): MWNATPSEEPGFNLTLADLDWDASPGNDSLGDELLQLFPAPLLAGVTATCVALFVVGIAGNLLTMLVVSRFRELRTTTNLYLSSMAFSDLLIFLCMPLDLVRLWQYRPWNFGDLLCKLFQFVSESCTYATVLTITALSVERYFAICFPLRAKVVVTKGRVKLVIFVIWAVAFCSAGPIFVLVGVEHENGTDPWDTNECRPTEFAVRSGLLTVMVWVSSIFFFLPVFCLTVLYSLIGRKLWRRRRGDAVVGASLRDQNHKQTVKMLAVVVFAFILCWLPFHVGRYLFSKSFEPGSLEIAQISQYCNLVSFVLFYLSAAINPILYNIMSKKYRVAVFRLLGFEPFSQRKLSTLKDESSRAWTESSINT

Take `CC[C@H](C)[C@@H]1NCCOc2ccccc2CCCNC(=O)[C@@H](Cc2ccc(F)cc2)NC(=O)[C@@H](C)N(C)C1=O`: the Selectivity ratio in the assay listed under Homo sapiens is over 7700.

The compound `C[C@@H]1CN[C@@H](C2CC2)C(=O)N(C)[C@H](C)C(=O)N[C@H](Cc2ccc(F)cc2)C(=O)NCCCc2ccccc2O1` came in with a %max in assay [1] of 96%. For the same compound, the outcome with Rattus norvegicus [2], in the assay on Rattus norvegicus [3] and in the assay with Rattus norvegicus [6] was Active. Besides, the Activity result in the assay on Rattus norvegicus [4] and in the assay on Rattus norvegicus [5] was “Dose-dependent effect” each time.

With `CC(C)C1NCCOc2ccccc2/C=C\CNC(=O)C(Cc2ccccc2)NC(=O)C(C)N(C)C1=O` (stereo not given), the Selectivity ratio in the assay listed under Homo sapiens is over 1700.

On to `C[C@@H]1C(=O)N[C@H](Cc2ccccc2)C(=O)NCCCc2ccc3c(c2)OC(CC3)CN[C@@H](C2CC2)C(=O)N1C` (stereo not given in full), for which the result in the assay with Rattus norvegicus [6] was Active.

For the compound `CC1COc2ccccc2CCCNC(=O)[C@@H](Cc2ccc(F)cc2)NC(=O)[C@@H](C)N(C)C(=O)[C@H](C2CC2)N1` (stereo not given in full), the Selectivity ratio in the assay filed under Homo sapiens was 1700.

Regarding `CCC[C@@H]1NCCOc2ccccc2CCCNC(=O)[C@@H](Cc2ccc(O)cc2)NC(=O)CN(C)C1=O`, in the assay listed under Homo sapiens, the Selectivity ratio was over 100.

Take `CC(C)C[C@@H]1NCCOc2ccccc2/C=C\CNC(=O)[C@H](Cc2ccccc2Cl)NC(=O)C2(CCCC2)NC1=O`: the Selectivity ratio in the assay listed under Homo sapiens turned out to be 1040.

In the case of `CC[C@H](C)[C@@H]1NCCOc2ccccc2CCCNC(=O)[C@@H](Cc2cccs2)NC(=O)[C@@H](C)N(C)C1=O`, the Selectivity ratio in the assay filed under Homo sapiens was over 1000.

Take `C[C@@H]1C(=O)N[C@H](Cc2ccc(Cl)cc2)C(=O)NCCCc2ccccc2OCCN[C@@H](C2CC2)C(=O)N1C`: in the assay with Rattus norvegicus [6], the outcome was Active.

As for `CCC(C)[C@H]1NCCOc2ccccc2[C@H]2C[C@@H]2CNC(=O)[C@H](Cc2cccc(Cl)c2)NC(=O)C2(CCCC2)NC1=O` (stereo not given in full), in the assay listed under Homo sapiens, the Selectivity ratio was found to be 400.

Regarding `CC[C@H](C)[C@@H]1NCCCCCCCCNC(=O)[C@H](Cc2cccc(Cl)c2)NC(=O)C2(CCCC2)NC1=O`, the Selectivity ratio in the assay listed under Homo sapiens was found to be 35.

With `CC(C)C[C@@H]1NCCOc2ccccc2/C=C\CNC(=O)[C@H](Cc2ccccc2)NC(=O)C2(CCCC2)NC1=O`, the Selectivity ratio in the assay listed under Homo sapiens was found to be 200.

For `CCC[C@@H]1NCCOc2ccccc2/C=C\CNC(=O)[C@@H](Cc2ccccc2)NC(=O)[C@@H](C)N(C)C1=O`, the Selectivity ratio in the assay listed under Homo sapiens is 3400.

Consider `CC[C@H](C)[C@@H]1NCCOc2ccccc2/C=C\CNC(=O)[C@@H](Cc2ccccc2)NC(=O)[C@@H](C)N(C)C1=O`, for which, in the assay filed under Homo sapiens, the Selectivity ratio is over 3300.

`CCCC[C@@H]1NCCOc2ccccc2CCCNC(=O)[C@@H](Cc2ccccc2)NC(=O)CN(C)C1=O`: the Selectivity ratio in the assay listed under Homo sapiens amounted to 142.

In the case of `CC[C@H](C)[C@@H]1NCCOc2ccccc2CCCNC(=O)[C@@H](Cc2cccc(Cl)c2)NC(=O)[C@@H](C)N(C)C1=O`, the Selectivity ratio in the assay listed under Homo sapiens is 3040.

As for `C[C@@H]1C(=O)N[C@H](Cc2ccc(Cl)cc2Cl)C(=O)NCCCc2ccccc2OCCN[C@@H](C2CC2)C(=O)N1C`, the Selectivity ratio in the assay filed under Homo sapiens is over 5500.

As for `C[C@@H]1CN[C@@H](C2CC2)C(=O)N(C)[C@H](C)C(=O)N[C@H](Cc2ccc(Cl)cc2)C(=O)NCCCc2ccccc2O1`, the result with Rattus norvegicus [6] was Active.

Take `CC1(C)NC(=O)C2(CCCC2)NCCOc2ccccc2/C=C\CNC(=O)[C@H](Cc2cccc(Cl)c2)NC1=O`: in the assay filed under Homo sapiens, the Selectivity ratio is 346.

In the case of `CC[C@H](C)[C@@H]1NCCOc2ccccc2CCCNC(=O)[C@@H](Cc2ccccc2Cl)NC(=O)[C@@H](C)N(C)C1=O`, in the assay listed under Homo sapiens, the Selectivity ratio came to 30000.

`CCC[C@@H]1NCCOc2ccccc2CCCNC(=O)[C@@H](Cc2c[nH]c3ccccc23)NC(=O)CN(C)C1=O`: the Selectivity ratio in the assay listed under Homo sapiens came out at 71.

On to `CC[C@H](C)[C@@H]1NCCOc2ccccc2CCCNC(=O)[C@@H](Cc2cccc3ccccc23)NC(=O)[C@@H](C)N(C)C1=O`, for which the Selectivity ratio in the assay listed under Homo sapiens was found to be 13000.

Regarding `C[C@@H]1CN[C@@H](C2CC2)C(=O)N(C)[C@H](C)C(=O)N[C@H](Cc2ccc(F)cc2)C(=O)NCCCc2ccc(F)cc2O1`, the outcome in the assay on Rattus norvegicus [6] was Active.

Turning to `C[C@@H]1C(=O)N[C@H](Cc2ccc(F)cc2)C(=O)NCCCc2ncccc2OCCN[C@@H](C2CC2)C(=O)N1C`, the Selectivity ratio in the assay listed under Homo sapiens was 714.

For the compound `CC[C@H](C)[C@@H]1NCCOc2ccccc2/C=C\CNC(=O)[C@H](Cc2ccc(Cl)cc2)NC(=O)C2(CCOC2)NC1=O` (stereo not given in full), the Selectivity ratio in the assay listed under Homo sapiens is over 159.

`CC[C@H](C)[C@@H]1NCCOc2ccccc2CCCNC(=O)[C@@H](Cc2ccccc2)NC(=O)[C@@H](C)N(CC)C1=O`: in the assay filed under Homo sapiens, the Selectivity ratio came out at 3700.

For `C[C@@H]1CN[C@@H](C2CC2)C(=O)N(C)[C@H](C)C(=O)N[C@H](Cc2ccc(Cl)cc2)C(=O)NCCCc2ccc(F)cc2O1`, the outcome in the assay with Rattus norvegicus [6] was Active.

Regarding `CC[C@H](C)[C@@H]1NC[C@H](C)Oc2ccccc2CCCNC(=O)[C@H](Cc2cccc(Cl)c2)NC(=O)C2(CCCC2)NC1=O`, the Selectivity ratio in the assay filed under Homo sapiens was found to be 300.

`C[C@@H]1C(=O)N[C@H](Cc2ccc(F)cc2)C(=O)NCCCc2cc(NS(C)(=O)=O)ccc2OCCN[C@@H](C2CC2)C(=O)N1C`: the Selectivity ratio in the assay filed under Homo sapiens was found to be 250.

For the compound `C[C@H]1NC(=O)C2(CCCC2)NCCOc2ccccc2/C=C\CNC(=O)[C@H](Cc2cccc(Cl)c2)NC1=O`, the Selectivity ratio in the assay filed under Homo sapiens turned out to be 450.

Turning to `CC[C@H](C)[C@@H]1NCCOc2ccccc2CCCNC(=O)[C@@H](Cc2ccccc2)NC(=O)[C@@H](C)N(C)C1=O`, in the assay listed under Homo sapiens, the Selectivity ratio was over 100.

For the compound `C[C@@H]1C(=O)N[C@H](Cc2ccc(O)c(C(C)(C)C)c2)C(=O)NCCCc2ccccc2OCCN[C@@H](C2CC2)C(=O)N1C`, the Selectivity ratio in the assay filed under Homo sapiens worked out at 21.

In the case of `CCC[C@@H]1NCCOc2ccccc2CCCNC(=O)[C@@H](Cc2ccccc2)NC(=O)CN(C)C1=O`, the Selectivity ratio in the assay filed under Homo sapiens was found to be 304.

As for `CC[C@H](C)[C@@H]1NCCOc2ccccc2CCCNC(=O)[C@@H](Cc2ccc(OC)cc2)NC(=O)[C@@H](C)N(C)C1=O`, the Selectivity ratio in the assay filed under Homo sapiens was over 7100.

`CC(C)C[C@@H]1NCCOc2ccccc2/C=C\CNC(=O)[C@H](Cc2cccc(Cl)c2)NC(=O)C2(CCCC2)NC1=O`: the Selectivity ratio in the assay listed under Homo sapiens was found to be 1080. The outcome with Rattus norvegicus [6] was Active.

On to `CC[C@H](C)[C@@H]1NCCCc2ccccc2/C=C\CNC(=O)[C@@H](Cc2ccccc2)NC(=O)[C@@H](C)N(C)C1=O`, for which the Selectivity ratio in the assay listed under Homo sapiens is over 800.

Consider `C[C@@H]1C(=O)N[C@H](Cc2ccccc2)C(=O)NCCCc2ccccc2OCCN[C@@H](C(C)(C)C)C(=O)N1C`, for which the Selectivity ratio in the assay filed under Homo sapiens was found to be 4300.

On to `CC[C@H](C)[C@@H]1NCCOc2ccccc2CCCNC(=O)[C@@H](Cc2ccc3ccccc3c2)NC(=O)[C@@H](C)N(C)C1=O`, for which the Selectivity ratio in the assay listed under Homo sapiens was 4900.

Consider `CC(C)[C@@H]1NCCOc2ccccc2/C=C\CNC(=O)[C@H](Cc2ccccc2)NC(=O)[C@@H](C)N(C)C1=O`, for which, in the assay listed under Homo sapiens, the Selectivity ratio is over 1700.

Regarding `CC[C@H](C)[C@@H]1NCCOc2ccccc2CCCNC(=O)[C@@H](Cc2ccc(Cl)cc2)NC(=O)[C@@H](C)N(C)C1=O`, in the assay listed under Homo sapiens, the Selectivity ratio worked out at 28000. In addition, the Activity in the assay on Rattus norvegicus [7] was 30 - 39%. Further, the outcome with Rattus norvegicus [2], in the assay with Rattus norvegicus [8] and with Rattus norvegicus [6] was Active.

Consider `C[C@@H]1C(=O)N[C@H](Cc2ccc(F)cc2)C(=O)NCCCc2ccc(F)cc2OCCN[C@@H](C2CC2)C(=O)N1C`, for which the Selectivity ratio in the assay listed under Homo sapiens amounted to 2500. Further, in the assay with Rattus norvegicus [6], the outcome was Active.

Take `C[C@@H]1C(=O)N[C@H](Cc2ccccc2)C(=O)NCCCc2ccccc2OCCN[C@@H](C2CC2)C(=O)N1C`: the Selectivity ratio in the assay filed under Homo sapiens came to 2500.

Take `CC(C)[C@@H]1NCCOc2ccccc2CCCNC(=O)[C@H](Cc2ccccc2)NC(=O)C2(CCCC2)NC1=O`: the Selectivity ratio in the assay listed under Homo sapiens amounted to 117.

Turning to `CC[C@H](C)[C@@H]1NCCOc2ccc(F)cc2CCCNC(=O)[C@H](Cc2cccc(Cl)c2)NC(=O)C2(CCCC2)NC1=O`, in the assay filed under Homo sapiens, the Selectivity ratio turned out to be 74.

With `CC[C@H](C)[C@@H]1NCCOc2ccc(C(=O)O)cc2CCCNC(=O)[C@@H](Cc2ccccc2)NC(=O)[C@@H](C)N(C)C1=O`, the Selectivity ratio in the assay listed under Homo sapiens amounted to 100.

As to `CCC[C@@H]1NCCOc2ccccc2CCCNC(=O)[C@@H](Cc2ccccc2)NC(=O)[C@H](C)N(C)C1=O`, the Selectivity ratio in the assay listed under Homo sapiens was 3010.

For the compound `C[C@H]1C(=O)N[C@@H](Cc2ccc(F)cc2)C(=O)NC[C@H]2C[C@@H]2c2ccccc2OCCN[C@H](C2CC2)C(=O)N1C`, the Selectivity ratio in the assay filed under Homo sapiens turned out to be 450.

`CC[C@H](C)[C@@H]1NCCCCCCCCNC(=O)[C@@H](Cc2ccccc2)NC(=O)[C@@H](C)N(C)C1=O`: in the assay listed under Homo sapiens, the Selectivity ratio came out at 28.

As for `O=C1NC/C=C/c2ccccc2OCCNC2(CCCC2)C(=O)NC2(CCCC2)C(=O)N[C@H]1Cc1ccccc1`, in the assay filed under Homo sapiens, the Selectivity ratio stood at 222.
